Experimental data: patent US20200253877A1, “GEMCABENE, PHARMACEUTICALLY ACCEPTABLE SALTS THEREOF, COMPOSITIONS THEREOF AND METHODS OF USE THEREFOR” (NEUROBO PHARMACEUTICALS, INC., priority 2018, published 2020)

What was measured:
[1] = tested on: hepatic mRNA expression in STAM™ mice; test: Murine STAM model of NASH-HCC: hepatic gene expression by quantitative RT-PCR; type: in vivo, mouse
Experimental: A study was performed to evaluate the efficacy of gemcabene calcium salt hydrate Crystal Form 1 having a PSD90 of 52 μm as measured by laser light diffraction, in treating non-alcoholic steatosis hepatitis (NASH) in the murine STAM™ model of NASH-HCC.
Briefly, two-day old neonatal C57BL/6 male mice were administered low-dose streptozotocin (STZ), and were subsequently fed a HFC diet from 4 weeks of age. In this model, the mice typically develop liver steatosis and diabetes, reaching steatohepatitis within 3 weeks, followed by cirrhosis within 8 weeks, and carcinoma within 16 weeks. In the current study, mice were administered daily oral gemcabene calcium salt hydrate Crystal Form 1 starting at week 6 of age and were sacrificed at week 9. […] These STAM™ groups were orally administered from week 6 one of the following: water-vehicle, gemcabene calcium salt hydrate Crystal Form 1 at 30, 100 and 300 mg/kg daily, or telmisartan ([…]®) 10 mg/kg daily. […] All groups were sacrificed at week 9. Vehicle, gemcabene calcium salt hydrate Crystal Form 1, or telmisartan were administered by oral gavage once daily.
Various gene expression markers of liver metabolism were evaluated by Real-Time PCR (RT-PCR) in all mouse groups. Total RNA was extracted from liver samples using RNAiso (Takara Bio, Japan) according to the manufacturer's instructions. […] of RNA was reverse-transcribed using a reaction mixture containing 4.4 mM MgCl2 (F. Hoffmann-La Roche, Switzerland), 40 U RNase inhibitor (Toyobo, Japan), 0.5 mM dNTP (Promega, USA), 6.28 μM random hexamer (Promega), 5×first strand buffer (Promega), 10 mM dithiothreitol (Invitrogen, USA) and 200 U MMLV-RT (Invitrogen) in a final volume of 20 μL. The reaction was carried out for 1 hour at 37° C., followed by 5 minutes at 99° C. Real-time PCR was performed using real-time PCR DICE and SYBR premix Taq (Takara Bio). To calculate the relative mRNA expression level, the expression of each gene was normalized to that of reference gene 36B4 (gene symbol: RplpO). Information of PCR-primer sets is described in Tables 37A-37C. Statistical analyses were performed using the Bonferroni Multiple Comparison Test on GraphPad Prism 6 (GraphPad Software Inc., USA). P values <0.05 were considered statistically significant. Results are expressed as mean±SD.
In order to calculate the relative mRNA expression level, the expression of each gene was normalized to that of the reference gene 36B4 (gene symbol: RplpO). The gene expression levels were measured by quantitative RT-PCR. Results were normalized with values for the vehicle-treated normal group. […] Gemcabene calcium salt hydrate Crystal Form 1 (PSD90=52 μm) modulated the mRNA expression of many hepatic genes that play a significant role in the liver homeostasis and injury.

[2] = tested on: STAM™ mice, a murine model of NASH-HCC; test: Murine STAM model of NASH-HCC: whole blood, plasma and liver biochemistry
[3] = gemcabene Form 1 100 mg/kg, telmisartan 10 mg/kg
[4] = vs Vehicle in NASH group, gemcabene Form 1 30 mg/kg
[5] = vs Vehicle in NASH group, gemcabene Form 1 100 and 300 mg/kg
[6] = vs Vehicle in NASH group, gemcabene Form 1 100 and 300 mg/kg, telmisartan 10 mg/kg

CC(C)(CCCCOCCCCC(C)(C)C(=O)O)C(=O)O.[Ca] [6-(5-Carboxy-5-methyl-hexyloxy)-2,2-dimethylhexanoic acid calcium]
LDL receptor gene expression ([1]; STAM mice): no effect
hepatic ApoC-III mRNA ([1]; STAM mice): significantly downregulated
MMP-2 mRNA expression (relative, mean±SD) ([1]; gemcabene Form 1 100 mg/kg): 0.5±0.2
NF-κB mRNA expression (relative, mean±SD) ([1]; gemcabene Form 1 100 mg/kg): 0.9±0.1
Sulf-2 mRNA expression (relative, mean±SD) ([1]; gemcabene Form 1 100 mg/kg): 3.8±0.7
TIMP-1 mRNA expression (relative, mean±SD) ([1]; gemcabene Form 1 100 mg/kg): 3.8±1.6
TNF-α mRNA expression (relative to vehicle-treated normal group, mean±SD) ([1]; gemcabene Form 1 100 mg/kg): 2.0±0.8
ACC-1 mRNA expression (relative, mean±SD) [1, 3]: 0.7±0.1
ADH-4 mRNA expression (relative, mean±SD) [1, 3]: 0.6±0.1
CCR2 mRNA expression (relative, mean±SD) [1, 3]: 1.6±0.4
CCR5 mRNA expression (relative, mean±SD) [1, 3]: 1.4±0.3
CRP mRNA levels (relative, mean±SD) [1, 3]: 0.6±0.1
MCP-1 mRNA expression (relative, mean±SD) [1, 3]: 1.7±0.7
MIP-1β mRNA levels (relative, mean±SD) [1, 3]: 2.3±0.9
ADH-4 mRNA expression (relative, mean±SD) ([1]; gemcabene Form 1 300 mg/kg): 0.5±0.1
CCR2 mRNA expression (relative, mean±SD) ([1]; gemcabene Form 1 300 mg/kg): 1.7±0.7
CCR5 mRNA expression (relative, mean±SD) ([1]; gemcabene Form 1 300 mg/kg): 1.3±0.3
CRP mRNA levels (relative, mean±SD) ([1]; gemcabene Form 1 300 mg/kg): 0.5±0.1
MCP-1 mRNA expression (relative, mean±SD) ([1]; gemcabene Form 1 300 mg/kg): 1.6±0.7
MIP-1β mRNA levels (relative, mean±SD) ([1]; gemcabene Form 1 300 mg/kg): 2.8±1.4
MMP-2 mRNA expression (relative, mean±SD) ([1]; gemcabene Form 1 300 mg/kg): 0.9±0.2
NF-κB mRNA expression (relative, mean±SD) ([1]; gemcabene Form 1 300 mg/kg): 0.8±0.1
Sulf-2 mRNA expression (relative, mean±SD) ([1]; gemcabene Form 1 300 mg/kg): 3.3±0.9
TIMP-1 mRNA expression (relative, mean±SD) ([1]; gemcabene Form 1 300 mg/kg): 4.4±2.1
TNF-α mRNA expression (relative to vehicle-treated normal group, mean±SD) ([1]; gemcabene Form 1 300 mg/kg): 1.9±0.7
ANGPTL4 mRNA expression level [1, 4]: no significant difference
IL-6 mRNA expression level [1, 4]: no significant difference
Fetuin-A mRNA expression level ([1]; vs Vehicle in NASH group, gemcabene Form 1 100 mg/kg): significant down-regulation
SCD mRNA expression level ([1]; vs Vehicle in NASH group, gemcabene Form 1 300 mg/kg): significant up-regulation
hepatic LPL mRNA expression levels ([1]; vs Vehicle in NASH group, gemcabene Form 1 30, 100 and 300 mg/kg, telmisartan 10 mg/kg): significant up-regulations
ANGPTL3 mRNA expression levels [1, 5]: significant down-regulations
CXCL1/KC mRNA expression levels [1, 5]: marked down-regulation
ANGPTL4 mRNA expression levels [1, 6]: significant down-regulations
IL-6 mRNA expression level [1, 6]: significant down-regulations
fasting whole blood glucose concentrations ([2]; 3 days prior to termination, 8 h fasting, vs vehicle-treated STAM mice, gemcabene Form 1 30, 100, 300 mg/kg, telmisartan 10 mg/kg, oral daily wk 6-9): no significant differences
plasma CRP levels ([2]; STAM mice): decreased
plasma ALP levels ([2]; at termination, vs vehicle-treated NASH group, gemcabene Form 1 100 and 300 mg/kg, telmisartan 10 mg/kg): significant increases
plasma creatinine levels ([2]; at termination, vs vehicle-treated STAM group, gemcabene Form 1 300 mg/kg): significant increase
plasma ALT levels ([2]; at termination, vs vehicle-treated STAM mice, gemcabene Form 1 100 mg/kg): significant decrease
whole blood glucose levels ([2]; at termination, vs vehicle-treated STAM mice, gemcabene Form 1 30, 100, 300 mg/kg, telmisartan 10 mg/kg): no significant differences
plasma total cholesterol concentrations ([2]; vs vehicle-treated STAM mice, gemcabene Form 1 30 mg/kg): no significant difference
plasma triglyceride concentrations ([2]; vs vehicle-treated STAM mice, gemcabene Form 1 30, 100, 300 mg/kg (dose-dependent manner), telmisartan 10 mg/kg): significant decreases
liver triglyceride content ([2]; vs vehicle-treated STAM mice, gemcabene Form 1 30, 100, 300 mg/kg, telmisartan 10 mg/kg): no significant differences
plasma total cholesterol concentrations ([2]; vs vehicle-treated STAM mice, gemcabene Form 1 100 and 300 mg/kg, telmisartan 10 mg/kg): significant increases
